Measured values as given in US6194176A, “Recombinant expression of proteins from secretory cell lines” (priority 1997, dated 2001).
Read-outs that look alike come from different tables or passages of the source.

Legend:
RIN 1046-38 cells = test: Insulin secretion in static incubation, glucose dose response with or without 5-thioglucose; format: cell-based; details: Rattus norvegicus; 2 mM 5-thioglucose, 0.25 mM glucose + 100 μM IBMX, 2 h; read-out: reduction in insulin secretion
Procedure: (§1) Cells were plated in 12-well dishes (Corning Glass Works, Corning, N.Y.) at a density of approximately 250,000 cells per well and allowed to grow for 48 hours. Cells were washed twice for 20 minutes each in HEPES/bicarbonate buffered salt solution (HBBSS; 114 mM NaCl, 4.7 mM KCl, 1.21 mM KH2 PO4, 1.16 mM MgSO4, 25.5 mM NaHCO3, 2.5 mM CaCl2, 10 mM Hepes) with 0.1% bovine serum albumin but without glucose. Secretion studies were then conducted by incubating cells in HBBSS containing 0.5% BSA and with glucose in a range of concentrations from 0 to 20 mM for two hours. These experiments were conducted in the presence and absence of 2 mM 5-thioglucose (Sigma, St. Louis, Mo.) and in the presence or absence of 100 μM isobutylmethylxanthine (IBMX). Following incubation, media was collected and assayed for insulin by radioimmunoassay with the DPC method, as described above. Secretion was normalized for cell number by measuring total protein in each well by the method of Bradford (1976), using the kit from Bio-Rad, Hercules, Calif.

EP 40/110 cells = test: as above; format: cell-based, rat; details: 2 mM 5-thioglucose, + IBMX, 2 h
Procedure: as §1

R5C.I-17 cells = test: as above; format: cell-based, rat
Procedure: as §1

EP 49/206 cells = test: as above; format: cell-based, rat; details: 2 mM 5-thioglucose, + IBMX, 2 h
Procedure: as §1

[1] = test system: Hexokinases I-III (HK1-111), low Km hexokinases; details: HK1-111, Table 1, cited from earlier work
Glucokinase (GK) = details: cited from earlier work

Q: What does the source list for `O=C[C@H](O)[C@@H](O)[C@H](O)[C@H](S)CO` [5-thioglucose]?
A: inhibition at 2000 µM (RIN 1046-38 cells): 50%; effect on insulin secretion response to 0.25 mM glucose (EP 40/110 cells): completely eliminated; inhibition at 2000 µM (EP 40/110 cells; Rattus norvegicus, read-out: reduction of insulin secretion response to 0.5 mM glucose): 70%; maximal fold-response of insulin secretion (R5C.I-17 cells; 2 mM 5-thioglucose present, seen at 1 mM glucose + IBMX (5.7-fold without 5-thioglucose)): 3.9 fold; inhibition at 2000 µM (R5C.I-17 cells; Rattus norvegicus, 2 mM 5-thioglucose, no secretagogues or IBMX alone, 2 h, read-out: suppression of basal insulin secretion): ~50%; effect on insulin secretion response to 0.05 and 0.25 mM glucose (EP 49/206 cells): completely eliminated

Q: Which Km ([1]; read-out: Km glucose) does the source give for `OC[C@H]1OC(O)[C@H](O)[C@@H](O)[C@@H]1O` (some centres unmarked) [glucose] here?
A: The Km was 20 to 130 µM.

Q: What about the Km (Glucokinase (GK); GK of Table 1, read-out: Km glucose) of the same compound?
A: Its Km is 5000 to 12000 µM.

Q: What about the Km (Glucokinase (GK); approximate, read-out: Km for glucose) of the same compound?
A: Its Km is 6000 to 8000 µM.

Q: With `O=P(O)(O)OC[C@H]1OC(O)[C@H](O)[C@@H](O)[C@@H]1O` (some centres unmarked) [G-6-P, glucose-6-phosphate] as the compound, how does the Ki ([1]; read-out: Ki G-6-P) read?
A: The Ki was 0.2 to 0.9 mM.

Q: And the Ki (Glucokinase (GK); GK of Table 1, read-out: Ki G-6-P)?
A: The Ki was 60 mM.

Q: What about the “glucose-6-phosphate concentration required for appreciable inhibition” value (Glucokinase (GK)) of the same compound?
A: Its value is over 10 mM.

Q: For `Nc1ncnc2c1ncn2[C@@H]1O[C@H](COP(=O)(O)OP(=O)(O)OP(=O)(O)O)[C@@H](O)[C@H]1O` [ATP], which Km ([1]; read-out: Km ATP) is on record?
A: Its Km is 200 to 500 µM.

Q: And the Km (Glucokinase (GK); GK of Table 1, read-out: Km ATP)?
A: Its Km is 500 µM.
